Source: patent US11319299B2, “Substituted carboxamides as inhibitors of WDR5 protein-protein binding” (PROPELLON THERAPEUTICS INC., priority 2016, dated 2022)

Molecular target: WDR5 (Homo sapiens (Human), UniProt P61964)
Test: Surface Plasmon Resonance (SPR) assay, KD and residence time
Type: binding
Details: surface plasmon resonance (SPR); read-out: WDR5 binding affinity (KD)

| SMILES | Kd [µM] |
| --- | --- |
| C[C@@H]1CN(c2cc(F)c(-c3ccnc(N4CCOCC4)n3)cc2NC(=O)c2cn(C)c(=O)cc2C(F)F)C[C@H](C)N1C [Example 746, 4-(difluoromethyl)-N-[4-fluoro-5-(2-morpholin-4-ylpyrimidin-4-yl)-2-[(3R,5S)-3,4,5-trimethylpiperazin-1-yl]phenyl]-1-methyl-6-oxopyridine-3-carboxamide] | 13600 |
| C[C@@H]1CN(c2cc(F)c(-c3ccc(C(=O)NC4CCCCC4(C)C)c(F)c3)cc2NC(=O)c2c[nH]c(=O)cc2C(F)(F)F)C[C@H](C)N1C (stereo partly drawn) [Example 747, N-[5-[4-[(2,2-dimethylcyclohexyl)carbamoyl]-3-fluorophenyl]-4-fluoro-2-[(3R,5S)-3,4,5-trimethylpiperazin-1-yl]phenyl]-6-oxo-4-(trifluoromethyl)-1H-pyridine-3-carboxamide] | 0.00485 |
| C[C@@H]1CN(c2cc(F)c(-c3ncc(CN4CCOCC4)s3)cc2NC(=O)c2cn(C)c(=O)cc2C(F)F)C[C@H](C)N1C [Example 748, 4-(difluoromethyl)-N-[4-fluoro-5-[5-(morpholin-4-ylmethyl)-1,3-thiazol-2-yl]-2-[(3R,5S)-3,4,5-trimethylpiperazin-1-yl]phenyl]-1-methyl-6-oxopyridine-3-carboxamide] | 0.0518 |
| C[C@@H]1CN(c2cc(F)c(-c3csc(CN4CCOCC4)n3)cc2NC(=O)c2cn(C)c(=O)cc2C(F)F)C[C@H](C)N1C [Example 749, 4-(difluoromethyl)-N-[4-fluoro-5-[2-(morpholin-4-ylmethyl)-1,3-thiazol-4-yl]-2-[(3R,5S)-3,4,5-trimethylpiperazin-1-yl]phenyl]-1-methyl-6-oxopyridine-3-carboxamide] | 0.0106 |
| C[C@@H]1CN(c2cc(F)c(-c3ncc(CN4CCOCC4)s3)cc2NC(=O)c2c[nH]c(=O)cc2C(F)(F)F)C[C@H](C)N1C [Example 751, N-[4-fluoro-5-[5-(morpholin-4-ylmethyl)-1,3-thiazol-2-yl]-2-[(3R,5S)-3,4,5-trimethylpiperazin-1-yl]phenyl]-6-oxo-4-(trifluoromethyl)-1H-pyridine-3-carboxamide] | 0.00827 |

The next molecules have a lower Kd than those just listed; values first:

| Kd [µM] | SMILES |
| --- | --- |
| 0.00171 | C[C@@H]1CN(c2cc(F)c(-c3nc(CN4CCOCC4)cs3)cc2NC(=O)c2c[nH]c(=O)cc2C(F)(F)F)C[C@H](C)N1C [Example 750, N-[4-fluoro-5-[4-(morpholin-4-ylmethyl)-1,3-thiazol-2-yl]-2-[(3R,5S)-3,4,5-trimethylpiperazin-1-yl]phenyl]-6-oxo-4-(trifluoromethyl)-1H-pyridine-3-carboxamide] |
| 0.002 | C[C@@H]1CN(c2cc(F)c(-c3cc(F)c(C(=O)N(C)C4CCCCC4)c(F)c3)cc2NC(=O)c2c[nH]c(=O)cc2C(F)(F)F)C[C@H](C)N1C [Example 760, N-(4′-(cyclohexyl(methyl)carbamoyl)-3′,5′,6-trifluoro-4-((3S,5R)-3,4,5-trimethylpiperazin-1-yl)-[1,1′-biphenyl]-3-yl)-6-oxo-4-(trifluoromethyl)-1,6-dihydropyridine-3-carboxamide] |
| 0.002 | C[C@@H]1CN(c2cc(F)c(-c3cc(F)c(C(=O)N(C)C4CCCC4)c(F)c3)cc2NC(=O)c2c[nH]c(=O)cc2C(F)(F)F)C[C@H](C)N1C [Example 761, N-(4′-(cyclopentyl(methyl)carbamoyl)-3′,5′,6-trifluoro-4-((3S,5R)-3,4,5-trimethylpiperazin-1-yl)-[1,1′-biphenyl]-3-yl)-6-oxo-4-(trifluoromethyl)-1,6-dihydropyridine-3-carboxamide] |
| 0.0009 | C[C@@H]1CN(c2cc(F)c(-c3cc(F)c(C(=O)N[C@@H]4CCOC4)c(F)c3)cc2NC(=O)c2c[nH]c(=O)cc2C(F)(F)F)C[C@H](C)N1C [Example 762, 6-oxo-N-(3′,5′,6-trifluoro-4′-(((R)-tetrahydrofuran-3-yl)carbamoyl)-4-((3S,5R)-3,4,5-trimethylpiperazin-1-yl)-[1,1′-biphenyl]-3-yl)-4-(trifluoromethyl)-1,6-dihydropyridine-3-carboxamide] |
